US5464617A, “β-lactam compounds” (Hoffmann-La Roche Inc., priority 1994, dated 1995)
Structures can show the parent of a compound that is named as a salt.

Legend:
[1] = tested on: Citrobacter freundii 1982; assay: MIC in vitro of a 1:4 combination of ceftriaxone with a compound of formula I (Test D); type: cell-based; conditions: for MIC C. freundii 1982 (D): test D; for MIC C. freundii 1982: Table 2
Procedure: The minimum inhibitory concentration in vitro ([…]) of a 1:4 combination of ceftriaxone with a compound of formula I against Citrobacter freundii 1982 was measured and compiled in Table 2 hereinafter.

E. coli 1346 = assay: Antibacterial activity of the products per se, serial dilution method in liquid medium (Test E); type: cell-based; conditions: product per se; for MIC E. coli 1346 (E): test E; for MIC E. coli 1346: Table 3, liquid medium
Excerpt: The antibacterial activity of the products per se is illustrated on the basis of Table 3 hereinafter, the minimum inhibitory concentration […] in vitro against E. coli 1346 being determined using the serial dilution method in liquid medium: […]

[2] = Table 4, 1:4 combination of ceftriaxone with the compound
[3] = 1:4 combination of ceftriaxone with the compound

Compound | MIC C. freundii 1982 (D) [1, 2] [µg/mL] | MIC E. coli 1346 (E) (E. coli 1346; Table 4) [µg/mL] | MIC C. freundii 1982 [1, 3] [µg/mL] | MIC C. freundii 1982 (D) ([1]; Table 5, particularly preferred products, 1:4 combination with ceftriaxone) [µg/mL] | MIC E. coli 1346 (E. coli 1346) [µg/mL] | MIC E. coli 1346 (E) (E. coli 1346; Table 5, particularly preferred products) [µg/mL]
NC(=O)OCC1=C(C(=O)O)N2C(=O)[C@@H]3[C@H]2[C@H](C1)CN3C(=O)NCc1ccccc1 [Example 27(c), (1aS,3aR,6bR)-2-Benzylcarbamoyl-5-carbamoyloxymethyl-1-oxo-1a,2,3,3a,4,6b-hexahydro-1H-2,6a-diazacyclobut[cd]indene-6-carboxylic acid sodium salt] | 0.25 | > 32 |  |  |  | 
Cn1nnnc1SC1=C(C(=O)O)N2C(=O)[C@@H]3[C@H]2[C@H](C1)CN3C(=O)C(F)(F)F [Example 3(ab), (1aS,3aR,6bR)-5-(1-Methyl-1H-tetrazol-5-ylsulphanyl)-1-oxo-2-trifluoroacetyl-1a,2,3,3a,4,6b-hexahydro-1H-2,6a-diazacyclobut[cd]indene-6-carboxylic acid sodium salt] | 16 | 32 |  |  |  | 
O=C(Nc1ccc(O)cc1)OCC1=C(C(=O)O)N2C(=O)[C@@H]3[C@H]2[C@H](C1)CN3C(=O)C(F)(F)F [90(b), (1aS,3aR,6bR)-5-(4-Hydroxy-phenylcarbamoyloxymethyl)-2-trifluoroacetyl-1-oxo-1a,2,3,3a,4,6b-hexahydro-1H-2,6a-diazacyclobut[cd]indene-6-carboxylic acid sodium salt] | 1 | 0.5 |  |  |  | 
NC(=O)OCC1=C(C(=O)O)N2C(=O)[C@@H]3[C@H]2[C@H](C1)CN3C(=O)NC1CC1 [27(d), (1aS,3aR,6bR)-5-Carbamoyloxymethyl-2-cyclopropylcarbarmoyl-1-oxo-1a,2,3,3a,4,6b-hexahydro-1H-2,6a-diazacyclobut[cd]indene-6-carboxylic acid sodium salt] | 0.25 | 32 |  |  |  | 
Cn1nnnc1SCC1=C(C(=O)O)N2C(=O)[C@@H]3[C@H]2[C@H](C1)CN3C(=O)NCCC(=O)OC(C)(C)C [18(f), (1aS,3aR,6bR)-2-(2-t-Butoxycarbonyl-ethylcarbarmoyl)-5-(1-methyl-1H-tetrazol-5-ylsulphanylmethyl)-1-oxo-1a,2,3,3a,4,6b-hexahydro-1H-2,6a-diazacyclobut[cd]indene-6-carboxylic acid sodium salt] | 1 | 4 |  |  |  | 
O=C(O)C1=C(CSc2ccncc2)C[C@@H]2CN(C(=O)Nc3ccc(O)cc3)[C@@H]3C(=O)N1[C@H]23 [18(j), (1aS,3aR,6bR)-2-(4-Hydroxy-phenylcarbamoyl)-1-oxo-5-(pyridin-4-ylsulphanylmethyl)-1a,2,3,3a,4,6b-hexahydro-1H-2,6a-diazacyclobut[cd]indene-6-carboxylic acid sodium salt] | 0.5 | > 32 |  |  |  | 
Cc1nnc(SCC2=C(C(=O)O)N3C(=O)[C@@H]4[C@H]3[C@H](C2)CN4C=O)s1 [65(e), (1aS,3aR,6bR)-2-Formyl-5-(5-methyl-1,3,4-thiadiazol-2-ylsulphanylmethyl)-1-oxo-1a,2,3,3a,4,6b-hexahydro-1H-2,6a-diazacyclobut[cd]indene-6-carboxylicacid sodium salt] | 0.5 | 1 |  |  |  | 
CC(=O)OCC1=C(C(=O)O)N2C(=O)[C@@H]3[C@H]2[C@H](C1)CN3C(=O)NCC(=O)OCc1ccccc1 [25(b), (1aS,3aR,6bR)-5-Acetoxymethyl-2-benzyloxycarbonylmethylcarbamoyl-1-oxo-1a,2,3,3a,4,6b-hexahydro-1H-2,6a-diazacyclobut[cd]indene-6-carboxylic acid sodium salt] | 0.25 | 4 |  |  |  | 
O=C([O-])Cc1ccc[n+](CC2=C(C(=O)O)N3C(=O)[C@@H]4[C@H]3[C@H](C2)CN4C(=O)Nc2ccc(O)cc2)c1 [57(b), (1aS,3aR,6bR)-[1-[6-Carboxy-2-(4-hydroxy-phenylcarbamoyl)-1-oxo-1a,2,3,3a,4,6b-hexahydro-1H-2,6a-diazacyclobut[cd]inden-5-ylmethyl]-pyridin-3-ylio]-acetate] | 0.25 | > 32 |  |  |  | 
O=C(O)C1=C(CSc2nc[nH]n2)C[C@@H]2CN[C@@H]3C(=O)N1[C@H]23 [Example 75, (1aS,3aR,6 bR)-1-Oxo-5-(1H-1,2,4-triazol-3-ylsulphanylmethyl)-1a,2,3,3a,4,6b-hexahydro-1H-2,6a-diazacyclobut[cd]indene-6-carboxylic acid trifluoroacetate] | 1 | 4 |  |  |  | 
O=CN1C[C@H]2OC(CSc3nnnn3CC(=O)NOC(c3ccccc3)(c3ccccc3)c3ccccc3)=C(C(=O)O)N3C(=O)[C@@H]1[C@@H]23 [38(d), (1aS,3aR,6bS)-2-Formyl-1-oxo-5-(1-(trityloxycarbamoylmethyl)-1H-tetrazol-5-ylsulphanylmethyl)-1,1a,2,3,3a,6b-hexahydro-4-oxa-2,6a-diazacyclobut[cd]indene-6-carboxylic acid sodium salt] | 128 | > 32 |  |  |  | 
C=CC1=C(C(=O)O)N2C(=O)[C@@H]3[C@H]2[C@H](C1)CN3C(=O)Nc1ccc(C(N)=O)cc1 [46(b), (1aS,3aR,6bR)-2-(4-Carbamoyl-phenylcarbamoyl)-1-oxo-5-vinyl-1a,2,3,3a,4,6b-hexahydro-1H-2,6a-diazacyclobut[cd]indene-6-carboxylic acid sodium salt] | 0.5 | > 32 |  |  |  | 
CC(=O)N1C[C@H]2CC(Sc3ccncc3)=C(C(=O)O)N3C(=O)[C@@H]1[C@@H]23 [Example 3(ah), (1aS,3aR,6bR)-2-Acetyl-1-oxo-5-(pyridin-4-ylsulphanyl)-1a,2,3,3a,4,6b-hexahydro-1H-2,6a-diazacyclobut[cd]indene-6-carboxylic acid sodium salt] | 2 | 8 |  |  |  | 
O=C(O)C1=C(CSc2nnnn2CC(=O)N2CCOCC2)S[C@@H]2CN[C@@H]3C(=O)N1[C@@H]32 [40(g), (1aS,3aR,6bS)-5-[1-(2-Morpholin-4-yl-2-oxo-ethyl)-1H-tetrazol-5-ylsulphanylmethyl]-1-oxo-4-thia-1,1a,2,3,3a,6b-hexahydro-2,6a-diazacyclobut[cd]indene-6-carboxylic acid] | 4 | > 32 |  |  |  | 
Nc1nnc(SC2=C(C(=O)O)N3C(=O)[C@@H]4[C@H]3[C@H](C2)CN4C(=O)Nc2ccc(O)cc2)s1 [3(l), (1aS,3aR,6bR)-5-(5-Amino-1,3,4-thiadiazol-2-ylsulphanyl)-2-(4-hydroxyphenylcarbamoyl)-1-oxo-1a,2,3,3a,4,6b-hexahydro-1H-2,6a-diazacyclobut[cd]indene-6-carboxylic acid sodium salt] |  |  | 0.5 | 0.5 | 8 | 8
Cn1nnnc1SCC1=C(C(=O)O)N2C(=O)[C@@H]3[C@H]2[C@H](C1)CN3C(=O)N[C@H]1CCNC1=O [18(c), (1aS,3aR,6bR)-2-[(S)-2-Oxo-pyrrolidin-3-ylcarbamoyl)-5-(1-methyl-1H-tetrazol-5-ylsulphanylmethyl]-1-oxo-1a,2,3,3a,4,6b-hexahydro-1H-2,6a-diazacyclobut[cd]indene-6-carboxylic acid sodium salt] |  |  | 0.25 |  | 32 | 
CC(=O)N1C[C@H]2CC(COC(=O)NC3CC3)=C(C(=O)O)N3C(=O)[C@@H]1[C@@H]23 [94(a), (1aS,3aR,6bR)-2-Acetyl-5-cyclopropylcarbamoyloxymethyl-1-oxo-1a,2,3,3a,4,6b-hexahydro-1H-2,6a-diazacyclobut[cd]indene-6-carboxylic acid sodium salt] | 2 | 2 |  |  |  | 
Cn1nnnc1SC1=C(C(=O)O)N2C(=O)[C@@H]3[C@H]2[C@H](C1)CN3C(=O)NCc1ccc(S(N)(=O)=O)cc1 [3(g), (1aS,3aR,6bR)-5-(1-Methyl-1H-tetrazol-5-ylsulphanyl)-1-oxo-2-(4-sulphamoyl-benzylcarbamoyl)-1a,2,3,3a,4,6b-hexahydro-1H-2,6a-diazacyclobut[cd]indene-6-carboxylic acid sodium salt] |  |  | 0.5 |  | 16 | 
O=C(O)C1=C(CSc2nnnn2CC(=O)N2CCOCC2)O[C@@H]2CN[C@@H]3C(=O)N1[C@@H]32 [29(l), (1aS,3aR,6bS)-5-(1-(2-Morpholin-4-yl-2-oxo-ethyl)-1H-tetrazol-5-ylsulphanylmethyl)-1-oxo-1,1a,2,3,3a,6 b-hexahydro-4-oxa-2,6a-diazacyclobut[cd]indene-6-carboxylic acid] | 32 | > 32 |  |  |  | 
Cc1nnc(SC2=C(C(=O)O)N3C(=O)[C@H]4NC[C@@H](C2)[C@H]43)s1 [Example 2(b), (1aS,3aR,6bR)-5-(5-Methyl-1,3,4-thiadiazol-2-ylsulphanyl)-1-oxo-1a, 2,3,3a,4,6b-hexahydro-1H-2,6a-diazcyclobut[cd]indene-6-carboxylic acid trifluoroacetate] |  |  | 1 |  | 4 | 
